Tests used:
Assay type in all cases: cell-based, human
A2780 cells = experiment: Chemical inhibition of Jak signaling, cytotoxicity assay; conditions: inhibitor 10 μM, 2 hours before
Method: (§1) FIGS. 7A-7D: Chemical inhibition of Jak signaling. OVCAR-5 cells (FIGS. 7A-7B) or A2780 cells (FIGS. 7C-7D) were treated with either ruxolitinib or tofacitinib for 2 hours at a final concentration of 10 μm before different concentrations of IFNs, IL4-PE or the combination of each were added. Percent viability was measured after 3 days in culture.
(§2) Cell lines were seeded at 10^4 cells/well in a 96-well plate in 100 μL of media and incubated until adherence (4 hr, 37° C., 5% CO2). Serial dilutions of IL4-PE, IFN-α2a, or IFN-γ were added and incubated for three days. IFNs were diluted using serial dilutions in cRPMI to obtain a final concentration of 200 ng/mL of both IFN-α2a or IFN-γ. For ruxolitinib and tofacitinib studies, 10 μM (final concentration) was added to the plates and incubated at 37° C. for 2 hours before IFNs or IL4-PE was added. The media was then removed, and cell viability was determined by crystal violet dye uptake in fixed, live cells. Crystal violet is a triarylmethane dye that binds to ribose type molecules such as DNA in nuclei. The dye staining is directly proportional to the cell biomass. Dye absorbance was measured at 570 nm using a spectrophotometer.

OVCAR-5 cells = experiment: as above; conditions: inhibitor 10 μM, 2 hours before, 20/4 and 200/40 ng/mL IFNs/IL4-PE, 3 days
Method: as §1, §2

STAT1 = experiment: Western blot for phosphorylated STAT1; conditions: OVCAR-5 and A2780 cell lines; 20 minutes
Method: FIGS. 6A-6B: Western blot analysis of IFN and IL4-PE STAT activation. (FIG. 6A) Western blots for phosphorylated STAT1 in OVCAR-5 and A2780 cells stimulated with IFNα2a, IFNγ, IL4-PE, or all three agents for 20 minutes at the highest concentrations from FIGS. 1A-1B (representative of three separate experiments). (FIG. 6B) Western blots for phosphorylated STAT6 in OVCAR-5 and A2780 cells stimulated with IFNα2a, IFN, IL4-PE, or all three agents for 20 minutes (representative of three separate experiments). P38 protein kinase was used as a loading control.
Cell pellets were snap-frozen and stored at −80° C. Pellets were thawed and lysed with MPER buffer supplemented with protease inhibitors. Cell lysates were centrifuged at 13,000 RPM at 4° C. for 20 minutes to clarify the lysate. The clarified lysate was removed and placed in a new vial. The protein concentration was measured using a NANODROP® Spectrophotometer (LIFE TECHNOLOGIES®, Wilmington, Del.). The lysate was mixed with reducing loading buffer (LIFE TECHNOLOGIES®, Waltham Mass.) and heated at 90° C. for 10 minutes. The samples were allowed to cool and were either used immediately or stored at 4° C. for future analysis. The samples were analyzed using 10% Bis-Tris gels and then transferred to nitrocellulose membranes per the manufacturer's directions. […]

| Molecule | effect on IFN signaling / IFN-mediated killing (A2780 cells) | effect on IFN- and IFNs and IL4-PE-mediated cell death / IFN signaling (OVCAR-5 cells) | STAT1 phosphorylation (STAT1) |
| --- | --- | --- | --- |
| C[C@@H]1CCN(C(=O)CC#N)C[C@@H]1N(C)c1ncnc2[nH]ccc12 [Tofacitinib, tofacitinib] | blocked | dose-dependent blocking of IFN signaling | – |
| IFNγ: IFN-γ purchased from INTERMUNE Pharmaceutical Inc. | – | – | induced |
| IFNα: human IFN-α2a, gift of Hoffmann LaRoche (protein, Mouse, human IFN-α2a, gift of Hoffmann LaRoche) MARPFAFLMVLVVISYWSTCSLGCDLPQTHNLRNKKILTLLAQMRRLSPLSCLKDRKDFGFPQEKVDAQQIQEAQAIPVLSELTQQILTLFTSKDSSAAWNATLLDSFCTGLHQLLNDLQGCLMQLVGMKELPLTQEDSQLAMKKYFHRITVYLREKKHSPCAWEVVRAEVWRALSSSVNLLARLSEEKE | – | – | induced |
